Assay results as given in patent publication US20200399238A1, “THERAPEUTIC AURONES” (MIDDLE TENNESSEE STATE UNIVERSITY, priority 2016, published 2020).
pIC50: −log10 of the molar value. Read-outs that look alike come from different tables or passages of the source.

Assays:
[1] = system: rat skeletal muscle cell line, L6; test: cells; assay type: cell-based; settings: rat, 71.5 h
[2] = system: C. albicans (ATCC strain 90028); test: Antifungal microdilution broth assay (PrestoBlue), C. albicans; assay type: cell-based, Candida albicans; settings: Candida albicans, ATCC90028, across C. albicans, C. glabrata, and C. tropicalis; read-out: IC50 values against Candida species
Procedure, shortened: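 Inoculum of 1.5×10^3 cells/mL in RPMI-MOPS (0.165 M MOPS, pH 7.0), exposed to aurones for 24 h at 35 °C. Growth read by PrestoBlue (10% final) fluorescence at ex 560/em 590 nm.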

[3] = system: Cryptococcus neoformans (Cn); test: CLSI micro-dilution inhibition / MIC, Cryptococcus neoformans; assay type: cell-based
Protocol: C. neoformans (strain 1199s) was prepared following CLSI guidelines for the organism (CLSI, Reference Method for Broth Dilution Antifungal Susceptibility Testing of Yeasts, Approved Standard-Third. Edition, Clinical Laboratory Standards Institute, Wayne, Pa., 2008).
(§1) The A27-M2 CLSI standard micro-dilution method was used to screen an aurone library (MTSU Department of Chemistry) for inhibition of Cryptococcus neoformans (Cn). Each aurone was screened in triplicate. […] Toxicity assays were conducted on human THP1 macrophages and L6 rat fibroblasts.
(§2) The inhibition of Cn strains and C. gattii strains by Aurone 9051 (also referred to as “Aurone X”) was characterized in different medias (including RPMI 1640 (Standard), RPMI 1640+MOPS, Asparagine media, minimal media, or yeast extract peptone dextrose (YPD) media), against other serotypes and strains, and at different cell concentrations. Synergy of the compounds with current drugs was characterized, and a growth curve experiment was conducted.

C. gattii strains = test: CLSI micro-dilution MIC, C. gattii strains; assay type: cell-based; settings: Cryptococcus gattii
Protocol: as §1, §2

p65 (NF-κB) = test: Indirect immunofluorescence for NF-κB nuclear translocation, THP-1; assay type: cell-based, human; settings: dose of 10 μM; THP-1, LPS 30 min
Description: Bay 11-7082 is a compound that inhibits LPS-induced activation of IKKα/β, thereby suppressing downstream IκBα phosphorylation/degradation and p65 nuclear translocation and was used as a positive control (Catalan, Fernandez-Castillejo et al. 2012). Treated cells were fixed, permeabilized, blocked, and stained with p65 (NF-κB) primary antibody, Dylight 488 conjugated secondary antibody, and Hoechst 33342 dye, sequentially. The Hoechst and DyLight fluorophores detect changes in nuclear morphology (blue fluorescence) and NF-κB distribution (green fluorescence), respectively. Nuclear Translocation Bioapplication software on the Arrayscan VTI reader was used for image acquisition and data analysis (Thermo Fisher Scientific, Waltham, Mass., USA). For each well, at least 400 cells were automatically acquired and analyzed. The translocation index was calculated by measuring the average intensity difference of NF-κB between the identified cytoplasmic region and nuclear region.

Compound: O=C1/C(=C/c2ccccn2)Oc2ccccc21 [Aurone 9051]
- toxicity to L6 rat fibroblasts [1]: > 100 µM
- pIC50 [2]: 4.74 to 5.00
- MIC ([3]; 10^3 cells, read-out: MIC, Cn): 25 µg/mL
- MIC ([3]; 10^4 cells, read-out: MIC, Cn): 50 µg/mL
- MIC ([3]; 10^5 cells, read-out: MIC, Cn): 100 µg/mL
- MIC ([3]; C. neoformans 24067 (lab), serotype D, RPMI + MOPS, inoculum 2 × 10^3 CFU/ml): 112 µM
- MIC ([3]; C. neoformans B18 (clinical), serotype A, RPMI + MOPS, inoculum 2 × 10^3 CFU/ml): 112 µM
- MIC ([3]; C. neoformans B45 (clinical), serotype A, RPMI + MOPS, inoculum 2 × 10^3 CFU/ml): 112 µM
- MIC ([3]; C. neoformans B58 (clinical), serotype A, RPMI + MOPS, inoculum 2 × 10^3 CFU/ml, read-out: MIC): 56 µM
- MIC ([3]; C. neoformans B3501 (lab), serotype D, RPMI + MOPS, inoculum 2 × 10^3 CFU/ml): 112 µM
- MIC ([3]; C. neoformans H99S, serotype A, Asparagine media, inoculum 2 × 10^3 CFU/ml): 112 µM
- MIC ([3]; C. neoformans H99S, serotype A, Minimal media, inoculum 2 × 10^3 CFU/ml): > 4480 µM
- MIC ([3]; C. neoformans H99S, serotype A, RPMI + MOPS, inoculum 2 × 10^3 CFU/ml): 112 µM
- MIC ([3]; C. neoformans H99S, serotype A, RPMI + MOPS, inoculum 2 × 10^4 CFU/ml): 224 µM
- MIC ([3]; C. neoformans H99S, serotype A, RPMI + MOPS, inoculum 2 × 10^5 CFU/ml): 448 µM
- MIC ([3]; C. neoformans H99S, serotype A, YPD media, inoculum 2 × 10^3 CFU/ml): > 896 µM
- MIC ([3]; C. neoformans JEC21 (lab), serotype D, RPMI + MOPS, inoculum 2 × 10^3 CFU/ml): 112 µM
- MIC ([3]; in RPMI+MOPS, read-out: MIC, Cn): 12.5 µg/mL
- MIC ([3]; in YPD, read-out: MIC, Cn): > 200 µg/mL
- MIC ([3]; in asparagine media, read-out: MIC, Cn): 25 µg/mL
- MIC ([3]; running text b175, read-out: MIC against Cryptococcus neoformans): 110 µM
- MIC (C. gattii strains; read-out: MIC, C. gattii strain R265): 25 µg/mL
- MIC (C. gattii strains; read-out: MIC, C. gattii strain R272): 25 µg/mL

Compound: Cc1ccc(S(=O)(=O)C=CC#N)cc1 [Bay 11-7082, 3-(4-methylphenylsulfonyl)-2-propenenitrile, reference compound]
- cytoplasmic-to-nuclear translocation of p65 (p65 (NF-κB)): blocked p65 translocation
